Measured values published in paper PMC8333062, “Chemical tools for epichaperome-mediated interactome dysfunctions of the central nervous system” (Nature Communications, 2021).

Key:
MDA-MB-468 tumors [1] = experiment: Radioactivity metabolite characterization (radio-HPLC of tumor extracts); type: in vivo, mouse; conditions: 24 h post iv
Description: MDA-MB-468 tumor xenografts were established on the forelimbs of female athymic nude mice (Hsd:Athymic Nude-Foxn1nu; Envigo; 6 weeks old; RRID:MGI:5652489) by subcutaneous (s.c.) injection of 5 × 10^6 cells in a 200 µl cell suspension of a 1:1 v/v mixture of PBS with reconstituted basement membrane (BD Matrigel^TM, Collaborative Biomedical Products Inc., Bedford, MA). […] After 24 h, tumors were harvested and weighed prior to homogenization in acetonitrile/H2O (3:7) using Bullet Blender Tissue Homogenizer (Next Advance Inc.). Tumor-associated radioactivity was extracted in methylene chloride, and the organic layer was separated and dried under vacuum. Samples were reconstituted in 10% CH3CN in 0.1% HCOOH in water were analyzed using Shimadzu (Columbia, Maryland USA) HPLC system equipped with binary pumps LC-20AB, UV detector and sodium iodide radioactivity detector connected to flow-ram (Lab Logic, Tampa, FL) and 250 × 4.6 mm Phenomenex Luna (Torrance, CA) C-18 HPLC column (10 µM, 100 A).

MDA-MB-468 tumors [2] = experiment: In vivo biodistribution of [131I]-PU-HZ151 (gamma counting); parameters: species or system mouse; key to Biodistribution, Lung / Biodistribution, Heart / Biodistribution, Muscle / Biodistribution, Blood / Biodistribution, Bone / Biodistribution, Brain / Biodistribution, tumor: percent injected dose per gram tissue (%ID/g); Biodistribution, Tumor - S / Biodistribution, Tumor - L: unit: %ID/g; conditions: mean
Description: Activity in the syringe before and after administration was assayed in a dose calibrator (CRC-15R; Capintec) to determine by difference the actual activity administered to each animal. Animals were euthanized by CO2 asphyxiation at different time points post-administration of the tracer and organs including tumors were harvested and weighed. […] Count data were background and decay-corrected to the time of injection, and the percent injected dose per gram (%ID g^−1) for each tissue sample was calculated by using a measured calibration factor to convert count rate to activity and the activity was normalized to the activity injected and the mass of sample assayed to yield the activity concentration in %ID g^−1.

Biodistribution, Blood (MDA-MB-468 tumors [2]; 1 h): 0.732
Biodistribution, Bone (MDA-MB-468 tumors [2]; 1 h): 0.55
Biodistribution, Brain (MDA-MB-468 tumors [2]; 1 h): 0.397
Biodistribution, Heart (MDA-MB-468 tumors [2]; 1 h): 0.402
Biodistribution, Lung (MDA-MB-468 tumors [2]; 1 h): 0.666
Biodistribution, Muscle (MDA-MB-468 tumors [2]; 1 h): 0.29
Biodistribution, tumor (MDA-MB-468 tumors [2]; 1 h): 1.745
Biodistribution, Blood (MDA-MB-468 tumors [2]; 4 h): 0.1086
Biodistribution, Bone (MDA-MB-468 tumors [2]; 4 h): 0.07
Biodistribution, Brain (MDA-MB-468 tumors [2]; 4 h): 0.015
Biodistribution, Heart (MDA-MB-468 tumors [2]; 4 h): 0.063
Biodistribution, Lung (MDA-MB-468 tumors [2]; 4 h): 0.296
Biodistribution, Muscle (MDA-MB-468 tumors [2]; 4 h): 0.034
Biodistribution, Tumor - L (MDA-MB-468 tumors [2]; 4 h): 0.5106
Biodistribution, Tumor - S (MDA-MB-468 tumors [2]; 4 h): 0.5895
Biodistribution, Blood (MDA-MB-468 tumors [2]; 6 h): 0.08349
Biodistribution, Bone (MDA-MB-468 tumors [2]; 6 h): 0.05
Biodistribution, Brain (MDA-MB-468 tumors [2]; 6 h): 0.01
Biodistribution, Heart (MDA-MB-468 tumors [2]; 6 h): 0.045
Biodistribution, Lung (MDA-MB-468 tumors [2]; 6 h): 0.237
Biodistribution, Muscle (MDA-MB-468 tumors [2]; 6 h): 0.044
Biodistribution, Tumor - L (MDA-MB-468 tumors [2]; 6 h): 0.4547
Biodistribution, Tumor - S (MDA-MB-468 tumors [2]; 6 h): 0.5075
Biodistribution, tumor (MDA-MB-468 tumors [2]; 6 h): 0.5792
Biodistribution, Blood (MDA-MB-468 tumors [2]; 8 h): 0.05883
Biodistribution, Bone (MDA-MB-468 tumors [2]; 8 h): 0.033
Biodistribution, Brain (MDA-MB-468 tumors [2]; 8 h): 0.005
Biodistribution, Heart (MDA-MB-468 tumors [2]; 8 h): 0.027
Biodistribution, Lung (MDA-MB-468 tumors [2]; 8 h): 0.129
Biodistribution, Muscle (MDA-MB-468 tumors [2]; 8 h): 0.023
Biodistribution, Tumor - L (MDA-MB-468 tumors [2]; 8 h): 0.3061
Biodistribution, Tumor - S (MDA-MB-468 tumors [2]; 8 h): 0.2819
Biodistribution, Blood (MDA-MB-468 tumors [2]; 12 h): 0.02368
Biodistribution, Bone (MDA-MB-468 tumors [2]; 12 h): 0.012
Biodistribution, Brain (MDA-MB-468 tumors [2]; 12 h): 0.002
Biodistribution, Heart (MDA-MB-468 tumors [2]; 12 h): 0.009
Biodistribution, Lung (MDA-MB-468 tumors [2]; 12 h): 0.04
Biodistribution, Muscle (MDA-MB-468 tumors [2]; 12 h): 0.006
Biodistribution, Tumor - L (MDA-MB-468 tumors [2]; 12 h): 0.2552
Biodistribution, Tumor - S (MDA-MB-468 tumors [2]; 12 h): 0.2535
Biodistribution, Blood (MDA-MB-468 tumors [2]; first column group, 24 h): 0.002331
Biodistribution, Bone (MDA-MB-468 tumors [2]; first column group, 24 h): 0.016
Biodistribution, Brain (MDA-MB-468 tumors [2]; first column group, 24 h): 0.001
Biodistribution, Heart (MDA-MB-468 tumors [2]; first column group, 24 h): 0.003
Biodistribution, Lung (MDA-MB-468 tumors [2]; first column group, 24 h): 0.012
Biodistribution, Muscle (MDA-MB-468 tumors [2]; first column group, 24 h): 0.002
Biodistribution, Tumor - L (MDA-MB-468 tumors [2]; first column group, 24 h): 0.2045
Biodistribution, Tumor - S (MDA-MB-468 tumors [2]; first column group, 24 h): 0.1544
Biodistribution, Bone (MDA-MB-468 tumors [2]; first column group, 48 h): 0.004
Biodistribution, Brain (MDA-MB-468 tumors [2]; first column group, 48 h): 0
Biodistribution, Heart (MDA-MB-468 tumors [2]; first column group, 48 h): 0.002
Biodistribution, Lung (MDA-MB-468 tumors [2]; first column group, 48 h): 0.004
Biodistribution, Muscle (MDA-MB-468 tumors [2]; first column group, 48 h): 0.001
Biodistribution, Tumor - L (MDA-MB-468 tumors [2]; first column group, 48 h): 0.08346
Biodistribution, Tumor - S (MDA-MB-468 tumors [2]; first column group, 48 h): 0.08811
Biodistribution, Blood (MDA-MB-468 tumors [2]; second column group, 24 h): 0.0041
Biodistribution, Bone (MDA-MB-468 tumors [2]; second column group, 24 h): 0.012
Biodistribution, Brain (MDA-MB-468 tumors [2]; second column group, 24 h): 0.00319
Biodistribution, Heart (MDA-MB-468 tumors [2]; second column group, 24 h): 0.0138
Biodistribution, Lung (MDA-MB-468 tumors [2]; second column group, 24 h): 0.061
Biodistribution, Muscle (MDA-MB-468 tumors [2]; second column group, 24 h): 0.002
Biodistribution, tumor (MDA-MB-468 tumors [2]; second column group, 24 h): 0.1057
Biodistribution, Blood (MDA-MB-468 tumors [2]; second column group, 48 h): 0.00228
Biodistribution, Bone (MDA-MB-468 tumors [2]; second column group, 48 h): 0.0182
Biodistribution, Brain (MDA-MB-468 tumors [2]; second column group, 48 h): 0.00219
Biodistribution, Heart (MDA-MB-468 tumors [2]; second column group, 48 h): 0.00513
Biodistribution, Lung (MDA-MB-468 tumors [2]; second column group, 48 h): 0.0472
Biodistribution, Muscle (MDA-MB-468 tumors [2]; second column group, 48 h): 0.018
Biodistribution, tumor (MDA-MB-468 tumors [2]; second column group, 48 h): 0.03983
SMILES: CC(C)(C)CNCCn1c(Sc2cc3c(cc2[131I])OCO3)nc2c(N)ncnc21 [[131I]-PU-HZ151]
species in tumor extract (MDA-MB-468 tumors [1]): only [^131I]-PU-HZ151 contributed to tumor-associated radioactivity
